Assay results from US20250186418A1, “COMPOSITIONS CONTAINING NICOTINAMIDE AND VITAMIN B6 AND METHODS OF USING SUCH COMPOSITIONS FOR REHABILITATION” (SOCIETE DES PRODUITS NESTLE S.A., priority 2020, published 2025).

Tested on: Human primary myoblasts
Experiment: Myogenic amplification and commitment of muscle stem cells (Pax7/MyoD staining of human primary myoblasts)
Type: cell-based
Conditions: donors 1 and 2 pooled, normalized to total cell number, control DMSO 1%, 96 hours; for proportion of MyoD+ cells, fold change compared to the control condition: FIG. 1B/2B
Experimental: Human Skeletal Muscle Myoblasts were purchased from Lonza (https://bioscience.lonza.com). These cells were isolated from the upper arm or leg muscle tissue of normal donors and used after the second passage. Several donors were tested to ensure cell viability and purity before selecting the final donors, which are a person (refer thereafter as Donor 1), a person (refer thereafter as Donor 2) and a person (refer thereafter as Donor 3). Human primary myoblasts were seeded in 384 well plates at a density of 1'000 cells per well in skeletal muscle growth medium (SKM-M, AMSbio). For treatment, compounds were directly added to the myoblast cultures 16 hours after initial plating. All cultures were then grown for 96 hours. Cells were stained for Pax7 and MyoD expression using antibodies directed against Pax7 and MyoD and counterstained with Hoechst 33342 to visualize cell nuclei. Pax7+ cells are defined as cells that express Pax7 regardless of MyoD expression. […] Image acquisition was performed using the ImageXpress (Molecular Devices) platform. Custom module analysis based on Multi-Wavelength Cell Scoring of the MetaXpress software was used for quantification. *, **, ***, **** indicates difference from the control, One-way ANOVA, with p<0.05, p<0.01, p<0.001, p<0.0001, respectively. Data are presented as Mean+/−SEM Human primary myoblasts from different donors (donor 1, donor 2 or donor 3) were seeded in 384 well plates at a density of 1′000 cells per well in skeletal muscle growth medium (SKM-M, AMSbio). For treatment, compounds were directly added to the myoblast cultures 16 hours after initial plating. All cultures were then grown for 96 hours. Cells were stained for Pax7 and MyoD expression using antibodies directed against Pax7 and MyoD and counterstained with Hoechst 33342 to visualize cell nuclei. Pax7+ cells are defined as cells that express Pax7 regardless of MyoD expression. […] Image acquisition was performed using the ImageXpress (Molecular Devices) platform. Custom module analysis based on Multi-Wavelength Cell Scoring of the MetaXpress software was used for quantification. […]

SMILES	proportion of Pax7+ cells, fold change compared to the control condition (FIG. 1A/2A)	proportion of MyoD+ cells, fold change compared to the control condition
NC(=O)c1cccnc1 [Nicotinamide]	increasing the proportion of both amplifying (Pax7+) and differentiating (MyoD+) cells in a dose dependent manner	increasing the proportion of both amplifying (Pax7+) and differentiating (MyoD+) cells in a dose dependent manner
Cc1ncc(CO)c(CO)c1O [Pyridoxine]	–	increasing the proportion of differentiating (MyoD+) cells in a dose dependent manner
